Measured values from PubChem BioAssay (NCI).
Several values for one entry are separate records, joined by “and”; a condition that tells them apart may be missing. Identical values can stand only once.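 Protocol summary: plate cells (96-well), add compound at 5 concentrations, incubate 48 h, interpolate endpoints linearly. Abbreviation: GI50, concentration required for 50% inhibition of growth. TGI is the concentration that stops growth completely.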

How the values were obtained:
Assay in all cases: growth of human tumour cells (NCI), 48 h
NCI-H522 lung = system: NCI-H522 lung
PC-3 prostate = system: PC-3 prostate
MALME-3M melanoma = system: MALME-3M melanoma
SK-MEL-5 melanoma = system: SK-MEL-5 melanoma
OVCAR-4 ovarian = system: OVCAR-4 ovarian
LOX IMVI melanoma = system: LOX IMVI melanoma
NCI/ADR-RES ovarian = system: NCI/ADR-RES ovarian
KM12 colon = system: KM12 colon
SN12C renal = system: SN12C renal
SW-620 colon = system: SW-620 colon
UACC-257 melanoma = system: UACC-257 melanoma

Compound | TGI (NCI-H522 lung) | TGI (PC-3 prostate) | TGI (MALME-3M melanoma) | TGI (SK-MEL-5 melanoma) | TGI (OVCAR-4 ovarian) | TGI (LOX IMVI melanoma) | TGI (NCI/ADR-RES ovarian) | TGI (KM12 colon) | TGI (SN12C renal) | TGI (SW-620 colon) | TGI (UACC-257 melanoma) | GI50 (KM12 colon)
COC(=O)/C=C/[C@H]1[C@H](C)N1S(=O)(=O)c1ccc(C)cc1 (some centres not stated) | > 100 µM | > 100 µM | > 100 µM | > 100 µM | > 100 µM | > 100 µM | > 100 µM | > 100 µM | > 100 µM | > 100 µM | > 100 µM | –
Cc1csc(CP(=O)(OC(C)C)OC(C)C)n1 | > 100 µM | > 100 µM | > 100 µM | > 100 µM | > 100 µM | > 100 µM | > 100 µM | – | > 100 µM | > 100 µM | > 100 µM | –
O=Cc1ccc(Oc2c3ccccc3nc3ccccc23)cc1 | – | 20.1 µM | 30 µM | 24.2 µM | 16.3 µM | 11.7 µM | > 100 µM | 58.7 µM | 11.1 µM | – | 4.89 µM | –
CC(=O)Oc1ccc(C2SCc3nc4ccccc4n32)cc1 (configuration not stated) | 69.2 µM | > 100 µM | > 100 µM | > 100 µM | > 100 µM | > 100 µM | 51.6 µM | 81.8 µM | > 100 µM | > 100 µM | > 100 µM | –
COc1ccc2oc(=O)c(-c3nc4ccccc4s3)cc2c1 | > 100 µM | > 100 µM | 28.2 µM | > 100 µM | 53.6 µM | 49.5 µM | > 96 µM | > 100 µM | > 100 µM | > 100 µM | > 100 µM | –
CCOc1ccnc2c(OC)c(C)c3nc4ccccc4nc3c12 | > 100 µM | > 100 µM | > 100 µM | > 100 µM | > 100 µM | > 100 µM | > 100 µM | > 100 µM | > 100 µM | > 100 µM | > 100 µM | –
COC(=O)CCC(=O)c1ccc2c(c1)CC1(Cc3ccccc3C1)C2 | > 100 µM | > 100 µM | > 100 µM | 33.1 µM | > 100 µM | > 100 µM | > 100 µM | > 100 µM | > 100 µM | – | 84.2 µM | –
COc1ccc(-c2c(C#N)c(N)n(C3OC(COC(C)=O)C(OC(C)=O)C(OC(C)=O)C3OC(C)=O)c(=S)c2C#N)cc1 (configuration not stated) | > 100 µM and 52.6 µM | > 100 µM | > 100 µM and 75.7 µM | > 100 µM and 56.4 µM | > 100 µM and 55.6 µM | > 100 µM | > 100 µM | > 100 µM | > 100 µM | > 100 µM | > 100 µM and 44.5 µM | > 100 µM and 36.8 µM
O=[N+]([O-])c1cc(C2ON=C(c3ccccc3)N2C23CC4CC(CC(C4)C2)C3)ccc1Cl (configuration not stated) | > 100 µM | > 100 µM | > 100 µM | > 100 µM | > 100 µM | > 100 µM | > 100 µM | > 100 µM | > 100 µM | – | > 100 µM | –
CNC(=S)c1nnsc1N | > 100 µM | > 100 µM | > 100 µM | > 100 µM | > 100 µM | > 100 µM | > 100 µM | > 100 µM | > 100 µM | > 100 µM | > 100 µM | –
COC1=C2C[C@](OC)(C#CC=CC#CC2O)CC1(C)C (some centres not stated) | > 100 µM | > 100 µM | > 100 µM | > 100 µM | – | > 100 µM | > 100 µM | > 100 µM | > 100 µM | > 100 µM | > 100 µM | –
CC1(C)C/C=C\CCC(O)C(O)CCC(C)(C)C1=O (configuration not stated) | > 100 µM | > 100 µM | > 100 µM | > 100 µM | > 100 µM | > 100 µM | > 100 µM | > 100 µM | > 100 µM | > 100 µM | > 100 µM | –
COc1ccc(-c2c3c(n(C4OC(COC(C)=O)C(OC(C)=O)C(OC(C)=O)C4OC(C)=O)c(=S)c2C#N)CCCC3)cc1 (configuration not stated) | > 100 µM | 66.7 µM | > 100 µM | > 100 µM | 98.9 µM | > 100 µM | > 100 µM | > 100 µM | > 100 µM | > 100 µM | > 100 µM | –
O=CC1C(=O)Nc2nc3ccccc3n2C1c1ccccc1 (configuration not stated) | 26.3 µM | 42.4 µM | 53.7 µM | 28.7 µM | 80.3 µM | 23.1 µM | > 100 µM | 29.9 µM | 28.2 µM | 43.3 µM | 33.3 µM | –
COc1ccc(C(CC(=O)c2ccc(O)cc2)C(C(=O)c2ccc(O)cc2)C(c2ccc(OC)cc2)C2C(=O)NC(=S)NC2=O)cc1 (configuration not stated) | 29.9 µM | 59.8 µM | – | 42.5 µM | 63.2 µM | 38 µM | > 100 µM | 31.9 µM | 57 µM | 55.7 µM | 41 µM | –
[B]C(=O)NC(CC(C)C)C(=O)NC1c2ccsc2C(=O)C1O (configuration not stated) (tested in a mixture with another compound) | > 100 µM | > 100 µM | > 100 µM | > 100 µM | > 100 µM | > 100 µM | > 100 µM | > 100 µM | > 100 µM | > 100 µM | > 100 µM | –
O=C(Nc1ccccn1)c1cc2c(cc1Cl)Sc1nccn1S2(=O)=O | > 100 µM | > 100 µM | > 100 µM | 67.6 µM | > 100 µM | > 100 µM | 85.6 µM | > 100 µM | > 100 µM | > 100 µM | > 100 µM | –
COc1ccc(/C=C2/C(=O)C(c3ccccc3)N(c3ccccc3)C2=O)cc1OC (configuration not stated) | > 10 µM | > 10 µM | > 10 µM | 0.307 µM | > 10 µM | > 10 µM | > 10 µM | > 10 µM | > 10 µM | > 10 µM | > 10 µM | –
CN1CCN2CCN(C)CCN(CC1)CC2 | > 100 µM | > 100 µM | – | > 100 µM | > 100 µM | > 100 µM | > 100 µM | > 100 µM | > 100 µM | > 100 µM | > 100 µM | –
COc1ccc(/C=C2\NC(=S)N(CN3CCOCC3)C2=O)cc1 | – | > 100 µM | > 100 µM | > 100 µM | > 100 µM | > 100 µM | > 100 µM | > 100 µM | > 100 µM | > 100 µM | > 100 µM | –
